Assay results reported in article PMC8443589, “Modelling human liver fibrosis in the context of non-alcoholic steatohepatitis using a microphysiological system” (Communications Biology, 2021).

Legend:
Assay type in all cases: cell-based, human
[1] = system: liver MPS NASH model (PHH, KC and HSC co-cultures); test: Cue study: secreted cytokines and chemokines (Luminex) with varying NPC number and added cues (Fig 5a, 5b)
From the text: There is only limited understanding of the pathogenic drivers of NASH and their interaction, principally due to a lack of translational models that are amenable to detailed molecular analysis[2],[34]. Here, a systems biology ‘cue-signal-analysis’ paradigm[35],[36] was utilised to produce large factorial datasets to enable the identification of molecular pathways of importance. […] To create varying set ups of the NASH microtissues we created hepatocyte microtissues in the MPS with high numbers of NPC (60,000 KC and HSC—equivalent to 10% of microtissue population) and low numbers of NPCs (6000 KC and HSC—equivalent to 1% of microtissue), representing physiological and non-physiological cell ratios respectively. Next, we took these different microtissues and cultured them in media with or without FFA. Finally, we supplemented the media with lipopolysaccharide (LPS), TGFβ, fructose or cholesterol either as single ‘cues’, in pairs or all together (Fig. 4a). ‘Cues’ were selected for clinical association with NASH. LPS, is a pleiotropic inflammatory molecule, it is proposed to reach the liver via the hepatic portal vein after release from the gastrointestinal tract, contributing to disease progression[37],[38]. TGFβ has been extensively studied in relation to fibrosis due to its regulation of genes controlling collagen and matrix-modifying enzymes. Fructose is a key substrate for de-novo lipogenesis, a process that has been identified as a key event in lipid accumulation within NAFLD patients. Finally, cholesterol accumulation has also been linked to NASH disease aetiology.
Assessment of gene expression changes was supplemented by assessment of the secretome produced by NASH microtissues in the MPS after exposure to the various cues. Increased pro-inflammatory cytokine secretion is a defining characteristic in NASH patients, so we conducted a Luminex cytokine array covering 42 different biomarkers, cytokines and chemokines secreted into the culture media of the different microtissues at multiple time points. […]

[2] = system: liver MPS NASH model (PHH, KC and HSC co-cultures); test: Cue study: pro-fibrotic biomarkers TIMP-1, pro-collagen 1, fibronectin (Fig 5c); settings: fat medium + cue
From the text: Assessment of gene expression changes was supplemented by assessment of the secretome produced by NASH microtissues in the MPS after exposure to the various cues. Increased pro-inflammatory cytokine secretion is a defining characteristic in NASH patients, so we conducted a Luminex cytokine array covering 42 different biomarkers, cytokines and chemokines secreted into the culture media of the different microtissues at multiple time points. We consistently detected 27 out of the 42 biomarkers and observed that there was differential expression of cytokines and chemokines driven by the different cues applied to the micro-tissue (Fig. 5a, b). The LPS cue and the presence of higher NPC numbers were responsible for driving the largest increase in cytokine and chemokine release, with the largest increases in cytokines measured on day 14 (Fig. 5b). […] Similarly, to the cytokine production, these changes were not further enhanced by combining cues, as all the cue combinations containing TGFβ had the highest expression (Supp. Fig. 17c).
Fig. 5 Systems biology interrogation of liver MPS NASH model to determine physiologically relevant cues that promote soluble biomarker changes to mimic advanced NASH disease state. PHH, KC and HSC co-cultures were cultured in the MPS platform under a variety of conditions for 14 days to test number of NPCs, presence of fat, fructose, cholesterol, LPS and TGFβ for effects on the soluble biomarker profile of the liver MPS NASH model. Expression of biomarkers, cytokines and chemokines were compared, all concentrations were normalised by Z-transformation to allow comparison and shown relative to mean for each marker (white = not detected). a Cytokine expression compared with varying levels of NPCs; b for the high NPC group in the presence of additional cues; c Expression of pro-fibrotic biomarkers with varying NPC content and with additional varying cues in high NPC condition (additional data in Supp. Fig. 17). d Graphical summary of the changes that occur in the NASH model in the presence of Fat and Fat + TGFβ. All data were generated from a minimum of three independent replicate samples per condition.
The MPS LC12 plates consists of 12 individual bioreactors that contain pneumatically driven micro-pumps to recirculate cell culture medium through a collagen-coated scaffold. Cells were cultured using the protocol previously described[20],[21], but briefly, PHH were seeded at a density of 6 × 10^5 viable cells per well on the LC12 plates with each NPC population (KC and/or HSC) at a density of 6 × 10^4 viable cells per well. Each well contained a final volume of 1.6 mL of medium per well and maintained under a flow rate of 1.0 µL/s. Cells were seeded in Williams E medium containing primary hepatocyte thawing and plating supplements (Life Technologies, USA) and cultured initially under downward flow for 8 h before the flow was automatically reversed to upward flow for the next 16 h of culture. Microtissues were then cultured in either HEP-Lean or HEP-Fat medium, both media’s are proprietary to CN Bio Innovations Ltd. The HEP-Fat medium is a derivative of the HEP-LEAN medium and contains a mixture of saturated and unsaturated FFAs, as well as physiologically relevant quantities of insulin and sugars. Complete media changes were performed on all wells every 48–72 h. For certain experiments, the media was supplemented with additional additives from day 4 onwards: 1 ng/ml LPS (lipopolysaccharides from Escherichia coli O111:B4) (Sigma Aldrich, UK), 1 ng/ml recombinant TGF beta 1 protein (Abcam, UK); 500 µM Fructose (Sigma Aldrich, UK), 50 µg/ml Cholesterol (Sigma Aldrich, UK). […]

[3] = system: liver MPS NASH model (PHH, KC and HSC co-cultures); test: Cue study: albumin production (ELISA)

## CC(C)CCC[C@@H](C)[C@H]1CC[C@H]2[C@@H]3CC=C4C[C@@H](O)CC[C@]4(C)[C@H]3CC[C@]12C [Cholesterol]
[1]; Day 6, Fat media + cue
  EGF relative expression (z-transformation): -2.017
  Eotaxin relative expression (z-transformation): -0.7967
  FGF-2 relative expression (z-transformation): -0.2249
  Fit-3L relative expression (z-transformation): -1.968
  Fractalkine relative expression (z-transformation): -1.501
  G-CSF relative expression (z-transformation): -0.1828
  GM-CSF relative expression (z-transformation): -0.6958
  GRO relative expression (z-transformation): -0.8479
  IFN-a2 relative expression (z-transformation): -1.086
  IL-1RA relative expression (z-transformation): -1.579
  IL-4 relative expression (z-transformation): -1.537
  IL-6 relative expression (z-transformation): -0.8492
  IL-7 relative expression (z-transformation): -1.138
  IL-8 relative expression (z-transformation): -1.037
  IL-15 relative expression (z-transformation): -1.447
  IP-10 relative expression (z-transformation): -1.086
  MCP-1 relative expression (z-transformation): -1.585
  MCP-3 relative expression (z-transformation): -1.263
  MDC relative expression (z-transformation): -0.4545
  MIP-1a relative expression (z-transformation): -0.7293
  MIP-1b relative expression (z-transformation): -0.9104
  TNFa relative expression (z-transformation): -0.774
  VEGF relative expression (z-transformation): -0.01821
[1]; Day 11, Fat media + cue
  EGF relative expression (z-transformation): 1.504
  Eotaxin relative expression (z-transformation): -0.8044
  FGF-2 relative expression (z-transformation): 0.794
  Fractalkine relative expression (z-transformation): -1.145
  G-CSF relative expression (z-transformation): -0.8882
  GRO relative expression (z-transformation): -1.084
  IFN-a2 relative expression (z-transformation): -0.9638
  IL-1RA relative expression (z-transformation): -1.623
  IL-4 relative expression (z-transformation): -1.08
  IL-6 relative expression (z-transformation): -0.9589
  IL-7 relative expression (z-transformation): -0.957
  IL-8 relative expression (z-transformation): -1.364
  IL-15 relative expression (z-transformation): -1.997
  IP-10 relative expression (z-transformation): -1.199
  MCP-1 relative expression (z-transformation): -2.479
  MCP-3 relative expression (z-transformation): -1.098
  MDC relative expression (z-transformation): -1.98
  MIP-1a relative expression (z-transformation): -0.8147
  MIP-1b relative expression (z-transformation): -0.9274
  VEGF relative expression (z-transformation): -1.0705
[1]; Day 14, Fat media + cue
  Eotaxin relative expression (z-transformation): -0.1613
  FGF-2 relative expression (z-transformation): -0.6319
  Fractalkine relative expression (z-transformation): -0.3551
  G-CSF relative expression (z-transformation): -1.591
  GM-CSF relative expression (z-transformation): -1.001
  GRO relative expression (z-transformation): -0.8633
  IFN-a2 relative expression (z-transformation): -1.669
  IL-1RA relative expression (z-transformation): -1.544
  IL-4 relative expression (z-transformation): -1.577
  IL-6 relative expression (z-transformation): -0.7817
  IL-7 relative expression (z-transformation): -1.113
  IL-8 relative expression (z-transformation): -1.061
  IL-15 relative expression (z-transformation): -1.074
  IP-10 relative expression (z-transformation): -0.9907
  MCP-1 relative expression (z-transformation): -1.142
  MCP-3 relative expression (z-transformation): -1.036
  MDC relative expression (z-transformation): -1.936
  MIP-1a relative expression (z-transformation): -0.7839
  MIP-1b relative expression (z-transformation): -0.9403
  TNFa relative expression (z-transformation): -0.8637
  VEGF relative expression (z-transformation): 3.004
[1]; day 14
  TNFα: greatest increase
[2]; Day 6, high NPC
  Fibronectin (Fold change in cytokine production compared to control): 0.5839
  Pro-collagen 1 (Fold change in cytokine production compared to control): -0.1232
  TIMP-1 (Fold change in cytokine production compared to control): -0.5668
[2]; Day 11, high NPC
  Fibronectin (Fold change in cytokine production compared to control): 0.3927
  Pro-collagen 1 (Fold change in cytokine production compared to control): 0.4365
  TIMP-1 (Fold change in cytokine production compared to control): -0.1305
[2]; Day 14, high NPC
  Fibronectin (Fold change in cytokine production compared to control): -0.4332
  Pro-collagen 1 (Fold change in cytokine production compared to control): 0.3527
  TIMP-1 (Fold change in cytokine production compared to control): -0.3247
[3]
  Albumin production: to a lesser extent
